Results: US12577597B2, “Transgenic microorganisms and synthesis of piperazic acid, piperazic acid containing products, and derivatives thereof” (Washington University, priority 2017, dated 2026)

What was measured:
[1] = tested on: Streptomyces flaveolus pzbB (sfaC) deletion mutant; assay type: cell-based
From the text: FIG. 5 is a series of LC/MS spectra showing the detection of sanglifehrin, a Piz—containing compound produced by Streptomyces flaveolus. Four major isobaric isomers of sanglifehrin A detected in WT S. flaveolus fermentation extracts. As expected from the results above, an unmarked gene deletion of pzbB (sfaC) from S. flaveolus abrogates sanglifehrin production.
Data indicating L-Piz successfully penetrates at least one Piz-compound producing actinomycete was obtained, followed by subsequent incorporation into a Piz drug-like compound sanglifehrin (see e.g., FIG. 5). […] Four major isobaric isomers of sanglifehrin A detected in WT S. flaveolus fermentation extracts. As expected from the results in FIG. 5, an unmarked gene deletion of pzbB (sfaC) from S. flaveolus abrogates sanglifehrin production.

SfaC-His6 (PzbB) = assay: Hemin influence on SfaC (PzbB) N5-OH-L-ornithine in vitro assay, piperazic acid quantified by HPLC/MS; assay type: biochemical, Streptomyces flaveolus; settings: hemin 10 μM in DMSO vs DMSO alone; SfaC-His6 2 μM; N5-OH-L-orn 1 mM; 50 mM Tris.HCl pH 8.0; aliquots at 30, 60, 90 sec
Procedure: As expected for a bona fide cofactor, adding hemin increases the rate of turnover.
100 μL of reaction in 50 mM Tris.HCl at pH 8.0 was set up with N^5—OH-L-orn (1 mM), SfaC-His6 (2 μM), and either hemin in DMSO (10 μM) or just DMSO. The two reactions were incubated at […]. Then, 30 μL aliquots were removed at 30, 60, and 90 sec, and combined with 30 μL 6% 5-sulfosalicylic acid. The cloudy mixture was centrifuged, and the supernatant was used for analysis. Sample was analyzed for piperazic acid by HPLC/MS. Analysis was performed using an lmtakt Intrada Amino Acid column (50×3 mm, 3 μm pore size) installed on an Agilent 1260 Infinity HPLC connected to an Agilent 6420 Triple-Quad mass spectrometer using the following method: T=0, 86% B; T=3, 86% B; T=10, 0% B; T=11, 0% B; T=12, 86% B; T=14, 86% B; A: water+100 mM ammonium formate, B: acetonitrile+0.1% formic acid; 0.6 mL/min. An extracted ion count chromatogram at m/z 131.1 (monoisotopic mass of protonated piperazic acid) was used to detect piperazic acid. For quantification, an SRM transition (m/z 131.1=>56.3; source voltage, 86 V; collision energy, 37 V) was monitored, and a standard curve (second order polynomial, R2=0.9996) was generated between 0.1 μM and 100 μM using a chemically synthesized L-piperazic acid dihydrochloride standard. The concentrations in time were plotted, and fitted to a line. […]

SfaC-His6 (PzbB), sequence (as listed by the source): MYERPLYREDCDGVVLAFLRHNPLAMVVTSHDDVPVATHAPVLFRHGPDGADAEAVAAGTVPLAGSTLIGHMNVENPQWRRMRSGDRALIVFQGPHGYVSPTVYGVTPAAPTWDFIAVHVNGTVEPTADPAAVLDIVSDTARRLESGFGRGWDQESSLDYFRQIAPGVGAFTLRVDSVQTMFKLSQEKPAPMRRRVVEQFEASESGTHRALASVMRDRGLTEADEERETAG

Row | Molecule | toxicity (qualitative) ([1]; 50 μM exogenous L-Piz, S. flaveolus) | cell penetrance ([1]; inferred from restored sanglifehrin production with 50 μM exogenous L-Piz in S. flaveolus) | increase of the slope (rate of reaction, piperazic acid formation) by hemin (SfaC-His6 (PzbB)) [times]
1 | O=C(O)C1CCCNN1 [L-Piz, L-piperazic acid] | qualitatively nontoxic | cell penetrant | 
2 | Fe^+3-protoporphryin IX [Hemin] |  |  | 14.4
